Common to all, as to experiment: inhibition of tumour cell growth, NCI panel, 48 h
Assay [1] has as its system OVCAR-8 ovarian.
In assay [2] the test system is NCI/ADR-RES ovarian.
Assay [3] concerns SN12C renal.
Assay [4] relates to NCI-H23 lung.
Assay [5] deals with HCT-116 colon.
Assay [6] deals with SF-539 CNS.
The test system of assay [7] is HT29 colon.
Assay [8] relates to K-562 leukemia.
The test system of assay [9] is ACHN renal.
In assay [10] the test system is UACC-62 melanoma.

This is an account of results in PubChem BioAssay (NCI).

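The compound was tested at five concentrations on cells cultured in 96-well plates, with a 48-hour exposure period. GI50 = concentration required for 50% inhibition of growth. Definition used: TGI = concentration required for complete inhibition of growth.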

Turning to `O=S(=O)(NNc1ccccc1)c1ccccc1`, the TGI was above 100 µM in assay [1]; 36.1 µM in [2]; 18.7 µM in [3]; above 100 µM in assay [4]; 29.4 µM in assay [5]; above 100 µM in assay [6]. Further, the TGI worked out at 27.2 µM in [7], 39.5 µM in [8], 15.8 µM in assay [9] and 30 µM in [10].
Take `CNC(=O)c1c(NC(=O)c2ccc(C(C)(C)C)cc2)sc2c1CCC(=O)C2`: the GI50 was 0.292 µM in assay [1]; 0.313 µM in assay [2]; 0.333 µM in [3]; 0.266 µM in assay [4]; 0.0971 µM in assay [5]; 0.244 µM in assay [6]. Further, the GI50 is 0.263 µM in [7], 0.0659 µM in assay [8], 0.203 µM in assay [9] and 0.262 µM in assay [10]. In addition, the TGI in assay [1] worked out at 3.19 µM; in assay [2] it was 1.29 µM; in assay [3] it was 1.4 µM; in [4], 1.24 µM; in assay [5] it was 1.4 µM; in assay [6] it was 1.22 µM. The TGI in assay [7] was 1.56 µM; in assay [8] it was above 100 µM; in assay [9], 0.922 µM; in [10], 1.28 µM.
`Cc1cc2c(cc1Cl)S/C(=C/C(=O)O)C(Nc1ccc3ncsc3c1)=NS2(=O)=O`: the GI50 in assay [1] was 32.7 µM; in assay [2], above 18.1 µM; in [3] it was 16.5 µM; in assay [4], above 14.3 µM; in [5], 9.93 µM; in [6], 9.66 µM. The GI50 is 19.4 µM in assay [7], 42.8 µM in [8], above 52.6 µM in [9] and 33.5 µM in assay [10]. Moreover, the TGI in [1] was above 100 µM; in assay [2], above 34.7 µM; in assay [3] it was above 64.8 µM; in assay [4], above 22.5 µM; in [5], above 42.9 µM; in assay [6] it was above 34.6 µM. Also, the TGI in assay [7] is above 100 µM; in assay [8], above 100 µM; in [9], above 68 µM; in assay [10], above 57.7 µM.
Turning to `COc1ncc(Nc2ncc([C@@H](C)N3CCN(S(C)(=O)=O)CC3)cc2-c2nc(C)nc(N)n2)cc1F`, the GI50 in assay [1] was 2.2 µM; in [2], 1.61 µM; in [3], 0.0686 µM; in assay [4], 3.86 µM; in assay [5], 1.87 µM; in [6] it was 0.0876 µM. Further, the GI50 in assay [7] was 0.0355 µM; in assay [8], 14.3 µM; in assay [9], 0.0651 µM; in assay [10], below 0.0113 µM. Besides, the TGI was above 100 µM in assay [1]; above 100 µM in [2]; above 33.6 µM in assay [3]; above 100 µM in assay [4]; above 100 µM in assay [5]; 1.45 µM in assay [6]. In addition, the TGI in [7] is above 100 µM; in [8] it was above 100 µM; in [9], above 100 µM; in [10], 1.2 µM.
On to `Nc1nc([Se])c2ncn(C3OC(CO)C(O)C3O)c2n1` (stereo not given), for which the GI50 in [1] is 3.86 µM; in assay [2] it was 5.57 µM; in assay [3], 52.9 µM; in assay [4] it was 5.05 µM; in assay [5], 4 µM; in [6], 19.3 µM. The GI50 in [7] was 4.29 µM; in assay [8] it was 5.59 µM; in assay [9], 20.8 µM; in assay [10], 4.16 µM. Besides, the TGI in [1], in assay [2], in assay [3], in [4], in assay [5] and in assay [6] was above 100 µM throughout. Also, the TGI in assay [7] is 82.9 µM; in [8], above 100 µM; in [9], above 100 µM; in [10], above 100 µM.
For `CCN(CC)CCCNc1cc(OC)cc2nc3cc(Cl)ccc3nc12`, the GI50 in assay [1] was 0.838 µM; in assay [2], 1.64 µM; in [3], 1.09 µM; in assay [4] it was 1.79 µM; in assay [5], 0.508 µM; in assay [6], 8.36 µM. For the same compound, the GI50 in [7] was 0.399 µM; in [8], 1.54 µM; in [9], 1.33 µM; in [10], 2.19 µM. In addition, the TGI in assay [1] came to 10.2 µM; in [2], 8.52 µM; in [3], 14.5 µM; in assay [4], 4.32 µM; in [5] it was 3.63 µM; in assay [6] it was 21.7 µM. The TGI in assay [7] amounted to 1.87 µM; in assay [8], 11.6 µM; in [9], 11.8 µM; in assay [10], 4.25 µM.
